The results in this text go back to a melting point compilation (Tetko et al.; mined from patent text by program, amines drawn as free bases though some values may be those of a salt).

Each structure is given as a SMILES string.

For orientation: melting point means the temperature of the solid-liquid transition. For the compound `Oc1ccc(-c2nc(-c3ccccc3)nc3ccccc23)c(O)c1`, the melting point was in the range of 178 to 180 °C. `COC[C@](C#N)(C(=O)N1CCN(c2cnccn2)CC1)[C@H](c1ccccc1OC)c1cccc2ccccc12`: the melting point was 149 °C. In the case of `COc1ccc(-n2ncc(C(N)=O)c2N)cc1`, the melting point lay within 213 to 215 °C. As for `C=C(C)COc1ccc2c(C)cc(=O)oc2c1C(=O)C=Cc1cccnc1`, the melting point fell in the range of 110 to 112 °C. Compound `CCOC(=O)Cc1nc(-c2ccccc2)oc1-c1cccs1` registered a melting point of 82 to 83 °C. Compound `COc1c(C2CCN(CCCCNC(=O)c3ccc(-c4ccc(C#N)cc4)nc3)CC2)ccc2c1CCCC2` registered a melting point of 166 to 168 °C. For `O=C(O)Cn1c(Cc2ccccc2)ccc(NC(=O)CCc2ccccc2)c1=O` the value was 214 to 216 °C. Take `CCOC(=O)CC(NS(=O)(=O)c1cccc(-c2cccc(NC(=NC#N)NCc3ccccn3)c2)c1)c1ccccc1` (stereo not given): the melting point turned out to be 82 °C.

`Cc1noc(NS(=O)(=O)c2ccccc2-c2ccc(-c3ncco3)cc2CN(C)C(=O)c2ccc(Cl)cc2)c1C`: the melting point fell in the range of 122 to 132 °C.

Turning to `CC(C)COc1c(NCCCBr)c(=O)c1=O`, the melting point was in the range of 70 to 71 °C.

`C#CCOC(=O)c1ccc(OCCC2CCN(c3ccc(Cl)nn3)CC2)cc1` showed a melting point of 122 °C. In turn, `COc1cccc(CN(Cc2cccc(OC)c2)c2ccc(-c3ccccc3)cc2)c1` came in with a melting point of 98 to 98.5 °C.

`CCCCCCCCCCCCNC(=O)ON=C(C1=C(Br)C(=O)C(C)(C)O1)c1ccccc1` had a melting point of 61.5 to 62.5 °C. For `Cc1ccc(S(=O)(=O)c2ccc3c(c2)c(CCN(C)C(=O)OC(C)(C)C)cn3C)cc1` the value was 143 to 145 °C; for `CCOC(=O)C1=C2NCCN2C(C)=C(C(=O)OC(C)C)C1c1cccc([N+](=O)[O-])c1` (stereo not given), 136 °C. For the compound `Cc1ncc2c(c1-c1nnn[nH]1)COc1ccccc1C2=O`, the melting point fell in the range of 180 to 182 °C. Compound `c1ccc(C(NC2C3CC4CC(C3)CC2(OCc2ccc(-c3nc5ccccc5o3)cc2)C4)(c2ccccc2)c2ccccc2)cc1` (stereo not given) gave a melting point of 208 to 210 °C. For `O=C(O)C1=C(C(=O)O)Oc2ccccc2O1` the value was 215 to 218 °C.

In turn, `CC(C)C(C(=O)CCC(NC(=O)OCc1ccccc1)C(=O)OCc1ccccc1)C(=O)OC(C)(C)C` (stereo not given) yielded a melting point of 69 to 71 °C.

Regarding `O=C1OC2(CCN(C(=O)Nc3cnc(-c4ccccc4)cn3)CC2)c2ccccc21`, the melting point worked out at 206 °C. `Nc1cc(=O)n(Cc2ccc(Cl)cc2Cl)[nH]1` displayed a melting point of 189 °C.

Compound `CCOC(=O)C1=C(C)Nc2ncnn2C1C` (stereo not given) returned a melting point of 155 to 157 °C. In the case of `COC(=O)c1cc(C)c(C(OC(=O)C(C)c2ccc3cc(OC)ccc3c2)c2cc(-n3ccnc3)ccc2C)c(C)c1` (stereo not given), the melting point is 115 to 117 °C. `Cc1noc2cc(OCCCNCC3CCc4ccc(O)cc4O3)ccc12` (stereo not given) returned a melting point of 169 to 170 °C. Consider `O=C(CCc1ccccc1Cl)Nc1c(Cl)ccc2nc(N3CC[C@H](NCCO)C3)ccc12`, for which the melting point is 180 to 182 °C. `C/C(=N\OC(=O)c1ccccn1)[C@H]1CC[C@H]2[C@@H]3CCC4=CC(=O)CC[C@]4(C)[C@H]3CC[C@]12C` showed a melting point of 172 to 174 °C. Regarding `O=C(C=Cc1ccc2c(c1)OCO2)c1cccc(OCCCCCBr)c1`, the melting point is 87 to 88 °C. For the compound `Cc1nsc(Br)c1S(=O)(=O)NC(C)(C)C`, the melting point was 118 to 123 °C.

In turn, `COc1ccc(/C=C(/C#N)c2cc(OC)c(OC)c(OC)c2)cc1N` showed a melting point of 144 to 145 °C. On to `COCCN1C(=O)C(C)(C)C(=O)Nc2cc(C#N)ccc21`, for which the melting point lay in the range of 184 to 185 °C. For `CN1C(=O)C(=O)NCC1(CCO)c1ccc(Cl)c(Cl)c1` (stereo not given) the value was 260 °C; for `CCCC[C@H](CN(C=O)OCc1ccccc1)C(=O)N1CCC[C@H]1C(=O)Nc1ccc(F)cn1`, 98 °C.

The compound `CC(C)(C)OC(=O)Nc1cc(OCc2ccccc2)c2ncccc2c1` showed a melting point of 180 to 181 °C. The compound `O[C@H]1CC[C@H](Nc2nccc(-c3n[nH]c4c(C(F)(F)F)cccc34)n2)CC1` registered a melting point of 266 to 270 °C. With `CC(NC(=O)C1=C(C(=O)Nc2cc(OC3CCCC3)c(Cl)cc2F)CCCC1)c1cccc2ccccc12` (stereo not given), the melting point lay in the range of 198 to 201 °C. For `O=C(Nc1cccc(SC(F)(F)F)c1)c1ccc2ccccc2c1O` the value was 154 °C; for `O=C1Nc2cccnc2N(CC#CCN2CCCC2)c2ccccc21`, 153 °C. In turn, `COc1ccc(C(NC(C)c2cc(F)cc(F)c2)c2cc(N)ccc2OC)cc1` (stereo not given) showed a melting point of 105 to 106 °C.

`CSc1noc(-c2ccc(OCCOc3ccc(C)cc3)cc2)c1C#N` returned a melting point of 139 to 140 °C. Consider `Cc1ccc2nc(-c3ccc(C#N)cc3)cn2c1`, for which the melting point was in the range of 225 to 226 °C.

Compound `COC(=O)COc1cccc2c1CCC(Br)C2=O` (stereo not given) displayed a melting point of 76 to 77 °C. As to `Cc1c(-c2ccnn2-c2ccc(C#N)cc2)nc(C(N)=O)c(=O)n1-c1cccc(C(F)(F)F)c1`, the melting point came out at 264 °C. `C=CCN(CC=C)S(=O)(=O)c1ccc([N+](=O)[O-])cc1[N+](=O)[O-]` displayed a melting point of 105 to 106 °C.

With `CCOC(=O)/C=C/c1cccc(Br)c1`, the melting point lay in the range of 26 to 28 °C. Take `CCOC(=O)c1cn(C)c2cnc3c(F)c(Cl)c(F)cc3c2c1=O`: the melting point came to 293 °C. As to `C=Cc1ccc(NC(=O)OCC2(C)COC(=O)OC2)cc1`, the melting point is 120 to 121 °C.

Consider `CNC(=O)c1cc(=O)c2ccccc2o1`, for which the melting point lay in the range of 224 to 225 °C. For `CC(C)CC(NC(=O)C(C)NC(=O)C(CC(=O)N1CCOCC1)Cc1cccc2ccccc12)C(O)C(=O)OC(C)C` (mixture of isomers) the value was 178 to 183 °C. With `CC(=O)c1ccc(NC(=O)NCCN(CCNC(=O)Nc2ccc(C(C)=O)cc2)CCNC(=O)Nc2ccc(C(C)=O)cc2)cc1`, the melting point lay in the range of 189 to 190 °C. Turning to `COc1ccc2c(c1)c(Cc1nc(-c3ccc4ccccc4c3)cs1)c(C)n2C(=O)c1ccc(Cl)cc1`, the melting point lay in the range of 131 to 133 °C. `COc1ccc(-c2cc(NC(=O)C3(C)Cc4ccccc4C3)n[nH]2)cc1` displayed a melting point of 171 to 172 °C.

The compound `CCOC(=O)C1=C(O)c2ccccc2N(c2ccccc2)C1` returned a melting point of 103 to 106 °C.

In turn, `CC(C)(C)OC(=O)N1[C@H](C=CCCCO)COC1(C)C` gave a melting point of 73 to 75 °C.

The compound `CCOC(=O)C(=O)Nc1nc2ncn(C)c(=S)n2n1` returned a melting point of 280 to 282 °C. For `O=C(c1ccccc1)n1c(=O)[nH]cc(F)c1=O` the value was 170 °C; for `CCC(C)(C)OC(=O)NC(C)(Cc1c[nH]c2ccccc12)C(=O)NCCc1ccncc1` (stereo not given), 138 to 141 °C.

As for `COc1ccc(OCC(F)(F)F)cc1N1CCN(CCCNC(=O)c2c(-c3ccccc3)noc2C)CC1`, the melting point was 125 °C. As for `C=Cc1cc(NC(=O)N2CCN(c3cc(OC)cc(OC)c3)CC2)c(OC)nc1C`, the melting point lay within 140 to 141 °C.

On to `CN1C(=O)C(c2ccc(OC(F)F)cc2)(c2cccc(C#CCCO)c2)N=C1N` (stereo not given), for which the melting point lay within 90 to 93 °C. On to `Cc1cc(CCCCCCCOc2ccc(C(=O)N(C)C)cc2)on1`, for which the melting point fell in the range of 58 to 59 °C. Take `CC(C)N(CCN1C(=O)C(=O)c2cc(Br)ccc21)C(C)C`: the melting point lay within 91 to 93 °C.

In turn, `CC(Oc1ccc([N+](=O)[O-])cc1[N+](=O)[O-])C(=O)O` (stereo not given) showed a melting point of 167 to 171 °C. The compound `Cc1cc(OCc2ccccc2)cc(C)c1NC(=O)CN1CCN2C(C1)C(=O)NC2(C)C` (stereo not given) had a melting point of 224 °C. For `CC(C)(C)NS(=O)(=O)c1c[nH]c2ccccc12` the value was 157 to 158 °C. Take `CCOC(=O)COc1cccc(C2C(C(=O)OCC)=C(C)NC(C)=C2C(=O)OCC)c1`: the melting point came to 108 °C. With `CCN1CCCC1CNC(=O)c1cc(N(C#N)S(C)(=O)=O)ccc1OC` (stereo not given), the melting point was 50 to 54 °C.

`COc1ccc(C(OCC2OC(n3cnc4c(=O)[nH]c(NC(=O)Cc5ccc(Cl)cc5)nc43)CC2O)(c2ccccc2)c2ccc(OC)cc2)cc1` (stereo not given) gave a melting point of 150 to 155 °C. The compound `COc1cccc(CC(=O)O)c1OCCCc1cn(-c2ccc(C#N)nn2)nc1C(C)C` registered a melting point of 132 to 133 °C. As to `CC(C)(C)OC(=O)N1CCC[C@H]1CNc1ccc2ncc(I)n2n1`, the melting point lay within 138 to 139 °C. In turn, `O=C1CCC=C1c1ccc(Cl)cc1` came in with a melting point of 71 to 72 °C. Consider `Cc1cc(C2OC(C)(C)N=C2c2ccccc2)cc(C)c1N(C)C` (stereo not given), for which the melting point is 91 to 92 °C. For `CC(C)(C)OC(=O)N1CCN(C(=O)c2ccccc2)CC1` the value was 106 °C. `CC1COCc2nc3c(N)nc4ccc(OC(=O)N5CCCC5)cc4c3n21` (stereo not given) yielded a melting point of 218 to 219 °C. For `O=C(O)CCCCCCc1ccccc1CO` the value was 75 to 77 °C; for `CC(C)C/C(=C\F)CN1C(=O)c2ccccc2C1=O`, 57 to 60 °C; for `CCOC(=O)c1nnc2ccc(NS(C)(=O)=O)cc2c1O`, 274 to 275 °C. As to `COc1cc(N)c2nccc(C)c2c1OCCCCc1ccccc1`, the melting point was in the range of 59 to 59.5 °C. As to `COCCc1nc2c(N)nc3ccccc3c2n1CCCCCCCCNS(C)(=O)=O`, the melting point lay in the range of 109 to 110 °C. `C=C(c1ccccc1OC)c1ccccc1OC` came in with a melting point of 88 to 90 °C. As for `CCc1cn(Cc2ccccc2)c(=O)[nH]c1=O`, the melting point fell in the range of 154 to 155 °C. In the case of `O=C1CCC(N2Cc3c(OCc4cccc(CN5CCn6nc(C(F)(F)F)nc6C5)c4)cccc3C2=O)C(=O)N1` (stereo not given), the melting point lay in the range of 213 to 215 °C. Regarding `CN(C)C(=O)c1ccc2ccccc2c1/C=C/c1ccccc1`, the melting point lay within 114 to 116 °C. Compound `C=CCc1c2n(c3ccccc13)C(=O)C(=Cc1ncn(C(c3ccccc3)(c3ccccc3)c3ccccc3)c1C)CC2` returned a melting point of 211 to 214 °C. For `CCOC(=O)C(=Cc1cccc(O)c1)C(=O)OCC` the value was 72 to 74 °C; for `COc1cc(C=NC2CCCCC2)c([N+](=O)[O-])cc1OC`, 160 to 161 °C.
